According to BindingDB's records for doi:10.1016/j.ejmech.2018.10.038 (Universities of Shandong, 2019):

Tests used:
[1] = Reversal of P-gp-mediated multidrug resistance in human KBV cells assessed as potentiation of paclitaxel-induced cytotoxicity by measuring paclitaxel IC50 at 10 uM after 72 hrs by MTT assay (Rvb = 1353.98 +/- 303.33 nM)
[2] = Reversal of P-gp-mediated multidrug resistance in human KBV cells assessed as potentiation of paclitaxel-induced cytotoxicity by measuring paclitaxel IC50 at 5 uM after 72 hrs by MTT assay (Rvb = 1353.98 +/- 303.33 nM)

SMILES | IC50 [1] [nM] | IC50 [2] [nM]
CC(C)(O)[C@H]1CC[C@@](C)([C@H]2CC[C@]3(C)[C@@H]2[C@H](O)C[C@@H]2[C@@]4(C)CC[C@H](N)C(C)(C)[C@@H]4CC[C@]23C)O1 | 48 | 135
CC(C)(C)OC(=O)NCCCCCC(=O)N[C@H]1CC[C@]2(C)[C@H]3C[C@@H](O)[C@@H]4[C@@H]([C@]5(C)CC[C@H](C(C)(C)O)O5)CC[C@@]4(C)[C@]3(C)CC[C@H]2C1(C)C | 28 | 48
